Assay results: patent publication US11970455B1, “7-(4-fluorobenzylidene)-4-(4-fluorophenyl)-2-methoxy-6,7-dihydro-5H-cyclopenta[b]pyridine-3-carbonitrile as an antimicrobial compound” (KING FAISAL UNIVERSITY, priority 2023, dated 2024)

Assays:
Pseudomonas aeruginosa = assay: Antimicrobial testing by agar dilution, Ps. aeruginosa; assay type: cell-based; details: after 10, 20, 40 and 60 min at all dilutions 1:100, 1:200, 1:400, 1:800
Protocol: (§1) The antimicrobial properties of the 7-(4-fluorobenzylidene)-4-(4-fluorophenyl)-2-methoxy-6,7-dihydro-5H-cyclopenta[b]pyridine-3-carbonitrile was studied by the method of agar dilution. Test solutions of each compound was prepared in concentration of 1% using dimethylformamide as a solvent then they are diluted in physiological solution to obtain the final experimental dilutions 1:100, 1:200, 1:400, 1:800. The effect of these substances are compared with furacillin in a controllable study. The testing microbes used were gram positive bacteria Staphylococcus aureus, gram negative bacteria Pseudomonas aeruginosa, Escherichia coli and Candida albicans fungi were taken. The experiments used for this survey were meat-pentonlu agar (EPA) for cultivation of bacteria and Saburo environment for fungi. Each experiment used 1 mL of test solution on each plate 500 min. Add 2 drops of emulsified with microbes feel. All experimental samples were taken from the agar after 10, 20, 40, 60 minutes in the environment on the basis of Patrk planted. Bacteria were cultivated at a temperature of 37° C. for 1 day and the mushroom was kept in a thermostat for […] at a temperature of 28° C. Then the results were checked.

Candida albicans = assay: Antimicrobial testing by agar dilution, Candida albicans; assay type: cell-based; details: after 10, 20, 40 and 60 min at all dilutions 1:100, 1:200, 1:400, 1:800
Protocol: as §1

Escherichia coli = assay: Antimicrobial testing by agar dilution, E. Coli; assay type: cell-based; details: after 10, 20, 40 and 60 min at all dilutions 1:100, 1:200, 1:400, 1:800
Protocol: as §1

Staphylococcus aureus = assay: Antimicrobial testing by agar dilution, St. Aereus; assay type: cell-based; details: after 10, 20, 40 and 60 min at all dilutions 1:100, 1:200, 1:400, 1:800
Protocol: as §1

melting point: 136 to 138 °C
Compound: COc1nc2c(c(-c3ccc(F)cc3)c1C#N)CC/C2=C\c1ccc(F)cc1 [7-(4-fluorobenzylidene)-4-(4-fluorophenyl)-2-methoxy-6,7-dihydro-5H-cyclopenta[b]pyridine-3-carbonitrile]
inhibition activity (Pseudomonas aeruginosa): most higher inhibition activity
inhibition activity (Candida albicans): most higher inhibition activity
inhibition activity (Escherichia coli): most higher inhibition activity
inhibition activity (Staphylococcus aureus): most higher inhibition activity
